Patent US20170239310A1, “Composition for Promoting Anti-Diabetic and Anti-Obesity Effects, Comprising Herbal Extract” (DONGGUK UNIVERSITY GYEONGJU CAMPUS INDUSTRY- ACADEMY …, priority 2014, published 2017)
Entries after “also recorded” stand apart in the source; their conditions may differ.

What was measured:
HepG2 cells = assay: Intracellular reactive oxygen species (ROS) activity, DHR123/FACS; format: cell-based; conditions: 6 hours, compared to normal group / metformin alone
Method: After centrifugation at 1200 g for 5 minutes, a supernatant was discarded, and the remaining HepG2 cells were treated with 5 μg/ml of DHR123, followed by incubation at 37° C. for 30 minutes. After additional centrifugation for 5 minutes, PBS washing was performed two times and filtration was performed. Intracellular reactive oxygen species activity was measured based on the value of fluorescence intensity obtained from FACS analysis.

RAW 264.7 cells = assay: LPS-induced nitrogen monoxide (NO) generation, GRIESS reaction; format: cell-based; conditions: 1 μg/ml LPS, 24 hours, compared to LPS group / metformin alone
Method: To compare an anti-inflammatory function, an in vitro model of LPS-induced nitrogen monoxide (NO) generation was used in an experiment, and NO measurement was carried out using a cell supernatant based on the GRIESS reaction (Green et al., 1982). RAW 264.7 cells were seeded at a density of 1.5×10^5 cells/ml and pre-treated with samples diluted at various concentrations, and after 1 hour, the pretreated cells were treated with 1 μg/ml of lipopolysaccharide (LPS: Sigma, St Louis, Mo., USA), followed by incubation for 24 hours. 50 μl of a cell culture supernatant and 50 μl of 1% (w/v) sulfanilamide, a GRIESS reagent, were added to each well of a 96-well plate, and the 96-well plate shaded from light was incubated at room temperature for 10 minutes and then 50 μl of 0.1% (w/v) N-1-naphthylethylenediamine dissolved in 2.5% (v/v) phosphoric acid was added to each well of the 96-well plate and mixed, followed by incubation under dark conditions for 10 minutes. Absorbance was read at 540 nm using a microplate reader (Molecular Devices, CA, USA) within 30 minutes after finishing incubation. NO production was calculated using a nitric oxide standard solution.

3T3-L1 cells = assay: Fat cell differentiation (Oil red O staining); format: cell-based; conditions: compared to control group / metformin alone
Method: After seeding 3T3-L1 cells into a 6-well plate at a density of 5×10^5 cells/well, the cells were cultured until reaching full confluence. The pre-existing culture medium for the cells was exchanged with DMEM (differentiation media) containing 1 μM dexamethasone, 0.5 mM IBMX, and 10 μg/ml insulin, and the cells were cultured for 48 hours and then were treated with DMEM (maturation media) containing 10 μg/ml insulin to induce differentiation. Differentiation-induced fat cells produced as a result of the process were treated with samples at various concentrations or a positive control group, and inhibitory effects on fat cell differentiation were analyzed using an Oil red O staining method, TG, and a TC assay.

L6 rat myoblast cells = assay: Glucose uptake assay (2-NBDG); format: cell-based; conditions: 2-NBDG 100 μg/ml; compared to control group / metformin alone
Text: Undifferentiated L6 rat myoblast cells were differentiated into myotube cells using 2% horse serum. […] When performing measurement, apigenin, a compound that inhibits glucose uptake, was used as a control.

RIN-m5F insulinoma cells = assay: Insulin secretion assay (rat insulin ELISA); format: cell-based; conditions: […] metformin with extract, 20 mM glucose
Method: A portion of cell culture supernatant was subjected to centrifugation at 4° C. for 10 minutes, and after centrifugation, a supernatant was collected and stored at −20° C. for further use. The amount of secreted insulin was measured using a rat insulin ELISA kit (Mercodia, Sweden), and an insulin secretion amount per gram of proteins was calculated by measuring the concentration of cellular proteins in each well.

AMPK-α = AMPK-α gene expression (real-time PCR) in RAW 264.7 cells; format: cell-based; conditions: normal group (N) 0.80
Method: (§1) Total RNA was separated and purified using TRIsure (Bioline, USA) according to a protocol. 1 μg of total RNAs was subjected to a reverse transcription reaction using a cDNA synthesis kit (Sprint™RT Complete Oligo-(dT)18, Clontech, Mountain View, Calif., USA) according to a protocol for synthesizing first strand cDNA. The produced RT-PCR sample was subjected to real-time PCR reaction, in which the final reaction volume was adjusted to 20 μl and Light Cycler-Fast Start DNA Master SYBR Green (Roche Applied Science, Indianapolis, Ind., USA) and a Light Cycler instrument (Roche Applied Science) were used.
(§2) PCR amplification was performed according to PCR steps, consisting of a pre-incubation step at 95° C. for 10 minutes and 35 (for beta-actin) or 45 (for C/EBPa) cycles of amplification (denaturation at 95° C. for 10 seconds, annealing at 52° C. for 10 seconds, and extension at 72° C. for 15 seconds). Total RNA was separated and purified using TRIsure (Bioline, USA) according to a protocol. 1 μg of total RNAs was subjected to a reverse transcription reaction using a cDNA synthesis kit (Sprint™RT Complete Oligo-(dT)18, Clontech, Mountain View, Calif., USA) according to a protocol for synthesizing first strand cDNA. […]

PPAR-α = PPAR-α gene expression (real-time PCR) in RAW 264.7 cells; format: cell-based; conditions: normal group (N) 1.01
Method: as §1, §2

XBP-1 = XBP-1 gene expression (real-time PCR) in RAW 264.7 cells; format: cell-based; conditions: normal group (N) 1.00
TNF-α = TNF-α gene expression (real-time PCR) in RAW 264.7 cells; format: cell-based; conditions: normal group (N) 1.01
OLETF/LETO rats = assay: Intraperitoneal insulin tolerance test (IPITT); format: in vivo, rat; conditions: metformin 100 mg/kg alone or with 200 mg/kg extract, insulin 1 U/kg IP
in vivo = conditions: rat, po, 100 mg/kg
IL-6 = IL-6 gene expression (real-time PCR) in RAW 264.7 cells; conditions: normal group (N) 1.11
[1] = DPPH free radical scavenging activity; format: biochemical; conditions: 300 μM DPPH, 37° C., 30 minutes
Method: 40 μl of a sample was mixed with 760 μl of 300 μM 2,2-diphenyl-1-picrylhydrazyl (DPPH) and the mixture was incubated at 37° C. for 30 minutes, and then the mixture was aliquoted to each well of a 96-well plate in triplicate and absorbance was measured at 515 nm using a microplate reader. BHT was used as a positive control group.

CL renal (in vivo; blood and urine)	AUC(0-t) (in vivo; blood)	CL/F (in vivo; blood)	Cmax (in vivo; blood)	Tmax (in vivo; blood)	DPPH free radical scavenging IC50 [1]	Compound	intracellular ROS activity (HepG2 cells)	production amount of nitrogen monoxide (RAW 264.7 cells)	lipid formation attributed to differentiation of 3T3-L1 preadipocytes (3T3-L1 cells)	capacity of glucose uptake (L6 rat myoblast cells)	amount of insulin secretion (RIN-m5F insulinoma cells)	gene expression level of AMPK-α (AMPK-α)	gene expression level of PPAR-α (PPAR-α)	gene expression level of XBP-1 (XBP-1)	gene expression level of TNF-α (TNF-α)	insulin resistance (IPITT, blood sugar AUC) (OLETF/LETO rats)	gene expression level of IL-6 (IL-6)
40.3 ± 13.8 mL/min/kg	29000 ng·h/mL	54.3 ± 15.4 mL/min/kg	7650 ± 3100 ng/mL	1.5 h		CN(C)C(=N)N=C(N)N [Metformin, metformin]	tendency of decreasing intracellular reactive oxygen species (ROS) activity	production amount of nitrogen monoxide was decreased	tendency of decreasing lipid formation	increased capacity of glucose uptake	significant changes in the amounts of insulin secretion were not observed	0.76	0.68	1.01	1.34	tendency to decrease; also recorded: tendency of decreasing	1.91
					113.85 µg/mL	Cc1cc(C(C)(C)C)c(O)c(C(C)(C)C)c1 [BHT]											
